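Cultured in 96-well plates, cells were exposed to test compound for 48 hours across five concentrations. GI50 is the concentration that inhibits growth by half.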 Activity calls are given as the source filed them. Rule as the data show it: active = GI50 up to about 1.1 µM and inactive = higher.
Assays:
Assay in all cases: inhibition of tumour cell growth, NCI panel, 48 h
[1] = system: HCC 2998
[2] = system: MDA-N
[3] = system: SF-539
[4] = system: TK-10
[5] = system: HCT-15
[6] = system: NCI-H460
[7] = system: Malme-3M
[8] = system: SR
[9] = system: SK-MEL-2
[10] = system: KM12
[11] = system: MDA-MB-435
[12] = system: UACC-257
[13] = system: MOLT-4
[14] = system: COLO 205
[15] = system: HL-60
[16] = system: EKVX
[17] = system: NCI-H522
[18] = system: RPMI-8226
[19] = system: 786-0
[20] = system: CAKI-1
[21] = system: DU-145
[22] = system: K562
[23] = system: SK-MEL-28
[24] = system: NCI-H23
[25] = system: U-251
[26] = system: OVCAR-8
[27] = system: SF-268
[28] = system: SNB-75
[29] = system: UO-31
[30] = system: CCRF-CEM
[31] = system: SW-620
[32] = system: SN12C
[33] = system: SK-OV-3
[34] = system: BT-549
[35] = system: RXF 393
[36] = system: SK-MEL-5
[37] = system: OVCAR-3
[38] = system: HOP-62
[39] = system: HCT-116
[40] = system: OVCAR-5
[41] = system: ACHN
[42] = system: PC-3
[43] = system: A498
[44] = system: MDA-MB-231
[45] = system: UACC-62
[46] = system: Hs-578T
[47] = system: M14
[48] = system: T47D
[49] = system: A549
[50] = system: HT-29
[51] = system: HOP-92
[52] = system: MCF7
[53] = system: NCI/ADR-RES
[54] = system: LOX IMVI
[55] = system: SF-295
[56] = system: SNB-19
[57] = system: IGROV-1
[58] = system: OVCAR-4
[59] = system: NCI-H226

SMILES: O=C1Nc2cccc(Cl)c2/C1=C\c1c(Cl)nc2sccn12
- GI50 [1]: > 100 µM (inactive)
- GI50 [2]: > 100 µM (inactive)
- GI50 [3]: 5.2 µM (inactive)
- GI50 [4]: 11.2 µM (inactive)
- GI50 [5]: > 100 µM
- GI50 [6]: > 100 µM (inactive)
- GI50 [7]: 76 µM (inactive)
- GI50 [8]: > 100 µM (inactive)
- GI50 [9]: 13.5 µM (inactive)
- GI50 [10]: > 100 µM (inactive)
- GI50 [11]: > 100 µM (inactive)
- GI50 [12]: > 100 µM (inactive)
- GI50 [13]: > 100 µM (inactive)
- GI50 [14]: > 100 µM (inactive)
- GI50 [15]: > 100 µM (inactive)
- GI50 [16]: 43.3 µM (inactive)
- GI50 [17]: 50.5 µM (inactive)
- GI50 [18]: > 100 µM (inactive)
- GI50 [19]: 9.31 µM (inactive)
- GI50 [20]: 43.2 µM (inactive)
- GI50 [21]: 65 µM (inactive)
- GI50 [22]: > 100 µM (inactive)
- GI50 [23]: > 100 µM (inactive)
- GI50 [24]: 21.7 µM (inactive)
- GI50 [25]: 6.03 µM (inactive)
- GI50 [26]: 31.1 µM (inactive)
- GI50 [27]: 18.9 µM (inactive)
- GI50 [28]: 11.2 µM (inactive)
- GI50 [29]: 27.7 µM (inactive)
- GI50 [30]: > 100 µM (inactive)
- GI50 [31]: > 100 µM (inactive)
- GI50 [32]: 29.6 µM (inactive)
- GI50 [33]: 14.9 µM (inactive)
- GI50 [34]: 28.8 µM (inactive)
- GI50 [35]: 13.7 µM (inactive)
- GI50 [36]: > 100 µM (inactive)
- GI50 [37]: > 100 µM (inactive)
- GI50 [38]: 15 µM (inactive)
- GI50 [39]: 37.3 µM (inactive)
- GI50 [40]: > 100 µM (inactive)
- GI50 [41]: 12.2 µM (inactive)
- GI50 [42]: 64.4 µM (inactive)
- GI50 [43]: 33.1 µM (inactive)
- GI50 [44]: 16.3 µM (inactive)
- GI50 [45]: 31.5 µM (inactive)
- GI50 [46]: 21.9 µM (inactive)
- GI50 [47]: 50.2 µM (inactive)
- GI50 [48]: 44.6 µM (inactive)
- GI50 [49]: > 100 µM (inactive)
- GI50 [50]: > 100 µM (inactive)
- GI50 [51]: 16.8 µM (inactive)
- GI50 [52]: > 100 µM (inactive)
- GI50 [53]: 55.1 µM (inactive)
- GI50 [54]: 63.8 µM (inactive)
- GI50 [55]: 28.2 µM (inactive)
- GI50 [56]: 17.6 µM (inactive)
- GI50 [57]: 28 µM (inactive)

SMILES: O=C(O)CCCN/C(=C1\C(=O)C(=O)N(c2ccccc2)C1=O)c1ccccc1
- GI50 [1]: > 100 µM (inactive)
- GI50 [2]: > 100 µM (inactive)
- GI50 [3]: 82 µM (inactive)
- GI50 [4]: > 100 µM (inactive)
- GI50 [5]: > 100 µM
- GI50 [6]: > 100 µM (inactive)
- GI50 [7]: > 100 µM (inactive)
- GI50 [8]: 20 µM (inactive)
- GI50 [9]: > 100 µM (inactive)
- GI50 [10]: > 100 µM (inactive)
- GI50 [11]: > 100 µM (inactive)
- GI50 [12]: > 100 µM (inactive)
- GI50 [13]: > 100 µM (inactive)
- GI50 [14]: > 100 µM (inactive)
- GI50 [15]: > 100 µM (inactive)
- GI50 [16]: > 100 µM (inactive)
- GI50 [17]: > 100 µM (inactive)
- GI50 [18]: > 100 µM (inactive)
- GI50 [19]: > 100 µM (inactive)
- GI50 [20]: > 100 µM (inactive)
- GI50 [21]: > 100 µM (inactive)
- GI50 [22]: > 100 µM (inactive)
- GI50 [23]: > 100 µM (inactive)
- GI50 [24]: > 100 µM (inactive)
- GI50 [25]: > 100 µM (inactive)
- GI50 [26]: > 100 µM (inactive)
- GI50 [58]: 37.2 µM (inactive)
- GI50 [27]: > 100 µM (inactive)
- GI50 [28]: > 100 µM (inactive)
- GI50 [29]: > 100 µM (inactive)
- GI50 [30]: > 100 µM (inactive)
- GI50 [31]: > 100 µM (inactive)
- GI50 [32]: > 100 µM (inactive)
- GI50 [33]: > 100 µM (inactive)
- GI50 [59]: > 100 µM (inactive)
- GI50 [34]: > 100 µM (inactive)
- GI50 [35]: > 100 µM (inactive)
- GI50 [36]: > 100 µM (inactive)
- GI50 [37]: > 100 µM (inactive)
- GI50 [38]: > 100 µM (inactive)
- GI50 [39]: > 100 µM (inactive)
- GI50 [40]: > 100 µM (inactive)
- GI50 [41]: > 100 µM (inactive)
- GI50 [42]: > 100 µM (inactive)
- GI50 [44]: > 100 µM (inactive)
- GI50 [45]: > 100 µM (inactive)
- GI50 [46]: > 100 µM (inactive)
- GI50 [47]: > 100 µM (inactive)
- GI50 [48]: > 100 µM (inactive)
- GI50 [49]: > 100 µM (inactive)
- GI50 [50]: > 100 µM (inactive)
- GI50 [51]: > 100 µM (inactive)
- GI50 [52]: > 100 µM (inactive)
- GI50 [53]: > 100 µM (inactive)
- GI50 [54]: > 100 µM (inactive)
- GI50 [55]: > 100 µM (inactive)
- GI50 [56]: > 100 µM (inactive)
- GI50 [57]: > 100 µM (inactive)

Reference: ChEMBL document CHEMBL1201862, “PubChem BioAssay data set” (2004)
